According to ChEMBL document CHEMBL1201862, “PubChem BioAssay data set” (2004):
Active and inactive are the calls of the source.

Tests used:
[1] = target: Cytochrome P450 3A4 (Homo sapiens, UniProt P08684);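 note: CYP3A4 tested as one member of a cytochrome P450 panel screen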
[2] = target: Cytochrome P450 2C9 (Homo sapiens, UniProt P11712)
[3] = target: T1, Replicative DNA helicase DnaB (Mycobacterium tuberculosis, UniProt P9WMR3); assay: DnaB intein splicing inhibitors, dose response, biochemical, cell-free fluorescence (AID 449749); assay type: functional
T1 sequence (P9WMR3 whole entry): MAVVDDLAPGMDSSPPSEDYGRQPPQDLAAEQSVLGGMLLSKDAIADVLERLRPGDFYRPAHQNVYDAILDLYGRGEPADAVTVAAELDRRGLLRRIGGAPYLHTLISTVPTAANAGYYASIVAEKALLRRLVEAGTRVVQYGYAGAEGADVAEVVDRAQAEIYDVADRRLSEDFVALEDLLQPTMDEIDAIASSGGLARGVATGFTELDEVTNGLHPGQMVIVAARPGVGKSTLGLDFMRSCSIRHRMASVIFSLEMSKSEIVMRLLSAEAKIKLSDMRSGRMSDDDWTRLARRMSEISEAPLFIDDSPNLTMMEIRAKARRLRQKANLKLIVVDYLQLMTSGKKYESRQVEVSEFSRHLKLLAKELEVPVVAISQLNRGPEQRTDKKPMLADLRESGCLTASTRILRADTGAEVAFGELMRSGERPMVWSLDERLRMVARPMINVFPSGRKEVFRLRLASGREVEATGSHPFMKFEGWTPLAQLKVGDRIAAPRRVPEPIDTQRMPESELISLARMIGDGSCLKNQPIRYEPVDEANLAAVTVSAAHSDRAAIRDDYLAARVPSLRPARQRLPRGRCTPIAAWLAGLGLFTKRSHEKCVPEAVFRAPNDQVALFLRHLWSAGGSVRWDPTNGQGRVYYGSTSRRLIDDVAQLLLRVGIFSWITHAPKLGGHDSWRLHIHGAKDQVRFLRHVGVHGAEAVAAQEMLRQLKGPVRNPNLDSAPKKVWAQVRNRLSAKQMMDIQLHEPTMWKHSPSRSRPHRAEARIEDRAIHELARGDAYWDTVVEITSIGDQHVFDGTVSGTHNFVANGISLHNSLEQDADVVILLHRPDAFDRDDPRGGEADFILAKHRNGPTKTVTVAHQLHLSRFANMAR

[4] = target: T2, Protein RecA (Mycobacterium tuberculosis, UniProt P9WHJ3); assay: Fluorescence Cell-Free Homogeneous Dose Retest to Identify Inhibitors of RecA-Intein Splicing Activity. [Related pubchem assays (depositor defined):AID2097, AID2223, AID489010, AID492950]; assay type: functional
T2 sequence (P9WHJ3 whole entry): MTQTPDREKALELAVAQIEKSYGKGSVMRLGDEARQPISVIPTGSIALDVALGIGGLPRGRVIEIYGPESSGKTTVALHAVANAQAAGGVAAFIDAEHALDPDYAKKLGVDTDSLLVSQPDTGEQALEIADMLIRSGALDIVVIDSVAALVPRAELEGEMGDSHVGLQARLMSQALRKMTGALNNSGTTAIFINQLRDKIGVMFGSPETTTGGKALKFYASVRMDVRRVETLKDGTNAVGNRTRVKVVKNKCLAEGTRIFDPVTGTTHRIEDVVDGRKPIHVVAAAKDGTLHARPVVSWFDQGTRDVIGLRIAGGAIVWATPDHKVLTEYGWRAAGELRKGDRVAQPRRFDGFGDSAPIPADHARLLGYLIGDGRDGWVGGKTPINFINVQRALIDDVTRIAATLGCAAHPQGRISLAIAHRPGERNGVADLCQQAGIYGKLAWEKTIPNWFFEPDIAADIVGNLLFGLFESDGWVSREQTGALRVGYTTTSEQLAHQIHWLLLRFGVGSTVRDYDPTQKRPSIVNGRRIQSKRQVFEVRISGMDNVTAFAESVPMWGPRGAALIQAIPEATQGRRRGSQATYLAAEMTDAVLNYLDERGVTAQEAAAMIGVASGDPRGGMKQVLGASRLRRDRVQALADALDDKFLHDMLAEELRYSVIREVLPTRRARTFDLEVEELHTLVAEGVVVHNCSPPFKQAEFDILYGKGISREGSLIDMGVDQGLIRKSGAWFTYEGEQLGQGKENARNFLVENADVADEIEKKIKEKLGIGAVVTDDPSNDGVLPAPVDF

[5] = target: Cytochrome P450 2D6 (Homo sapiens, UniProt P10635);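 note: CYP2D6 member of a cytochrome P450 panel assay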
[6] = target: T3, Cytochrome P450 1A2 (Homo sapiens, UniProt P05177);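 note: PubChem cytochrome P450 panel assay, CYP1A2 panel member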
T3 sequence (P05177 whole entry): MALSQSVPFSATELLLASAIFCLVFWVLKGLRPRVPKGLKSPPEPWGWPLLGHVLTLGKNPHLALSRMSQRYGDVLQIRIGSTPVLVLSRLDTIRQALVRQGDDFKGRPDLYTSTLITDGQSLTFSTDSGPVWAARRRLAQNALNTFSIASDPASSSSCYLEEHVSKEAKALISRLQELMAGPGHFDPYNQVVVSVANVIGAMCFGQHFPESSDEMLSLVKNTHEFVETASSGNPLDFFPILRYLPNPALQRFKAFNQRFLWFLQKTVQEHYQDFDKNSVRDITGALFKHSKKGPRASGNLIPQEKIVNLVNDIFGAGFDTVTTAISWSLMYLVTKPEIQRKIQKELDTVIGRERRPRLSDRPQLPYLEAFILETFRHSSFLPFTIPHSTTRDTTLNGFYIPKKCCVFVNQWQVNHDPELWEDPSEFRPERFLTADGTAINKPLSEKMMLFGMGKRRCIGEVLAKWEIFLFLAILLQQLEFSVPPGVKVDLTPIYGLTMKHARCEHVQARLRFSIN

[7] = Luminescence Cell-Based Dose Retest to Confirm Inhibitors of Cancer Stem Cells. [Related pubchem assays (depositor defined):AID2717, AID2721]; assay type: functional; settings: Homo sapiens
[8] = target: Cytochrome P450 2C19 (Homo sapiens, UniProt P33261); assay: Cytochrome panel assay with activity outcomes. Panel member name: p450-cyp2c19 Compounds with AC50 equal or less than 10 uM are considered active; assay type: functional
[9] = tested on: INS1; assay: beta cell apoptosis inhibitors, cytokine rescue, dose response, luminescence, retest (AID 449756); assay type: functional, cell-based; settings: Rattus norvegicus;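 note: cell death triggered by IL-1 beta plus TNF-alpha plus IFN-gamma mixture; protective hits raise ATP signal compared with cytokine alone wells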
[10] = inhibitors of intracellular T. cruzi replication, confirmation, NIH3T3 host cells, beta-gal luminescence (AID 2044); assay type: functional, cell-based;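 note: intracellular parasites grown in NIH/3T3 mouse fibroblasts as host cells; luminescent beta-galactosidase reporter signal from transgenic T. cruzi replicating inside host cells; inhibitors lower the luminescence signal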
[11] = cytotoxicity toward NIH3T3 fibroblasts, dose response, counter-screen, cell-based, ATP luminescence, mouse fibroblasts (AID 2010); assay type: functional;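 note: cells exposed to compound for about 90 hours before reading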
[12] = Luminescence Cell-Based Dose Confirmation HTS to Identify Inhibitors of Platelet Dense Granule Release. [Related pubchem assays: 1663 (Primary HTS), 1678 (Summary of Project)]; assay type: functional
[13] = target: Luciferin 4-monooxygenase (Photinus pyralis, UniProt P08659); assay: firefly luciferase enzyme inhibitors, dose response, biochemical, luminescence (AID 1891)
Luciferin 4-monooxygenase, sequence (P08659 whole entry): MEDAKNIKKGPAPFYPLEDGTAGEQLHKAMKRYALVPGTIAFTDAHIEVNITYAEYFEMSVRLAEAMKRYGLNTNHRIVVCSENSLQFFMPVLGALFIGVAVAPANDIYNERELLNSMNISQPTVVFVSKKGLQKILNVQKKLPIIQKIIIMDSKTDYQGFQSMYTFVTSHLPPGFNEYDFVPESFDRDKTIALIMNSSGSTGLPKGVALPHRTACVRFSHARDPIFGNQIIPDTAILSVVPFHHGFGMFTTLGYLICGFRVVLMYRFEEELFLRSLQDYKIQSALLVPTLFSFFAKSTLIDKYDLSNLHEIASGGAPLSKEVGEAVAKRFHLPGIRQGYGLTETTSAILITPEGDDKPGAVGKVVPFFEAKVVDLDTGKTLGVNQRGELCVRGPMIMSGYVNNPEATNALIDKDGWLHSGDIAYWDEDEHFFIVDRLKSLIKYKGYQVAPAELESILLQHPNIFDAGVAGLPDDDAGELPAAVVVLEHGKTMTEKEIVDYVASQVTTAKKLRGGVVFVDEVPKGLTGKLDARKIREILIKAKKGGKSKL

Cytochrome P450 2D6, sequence (P10635 whole entry): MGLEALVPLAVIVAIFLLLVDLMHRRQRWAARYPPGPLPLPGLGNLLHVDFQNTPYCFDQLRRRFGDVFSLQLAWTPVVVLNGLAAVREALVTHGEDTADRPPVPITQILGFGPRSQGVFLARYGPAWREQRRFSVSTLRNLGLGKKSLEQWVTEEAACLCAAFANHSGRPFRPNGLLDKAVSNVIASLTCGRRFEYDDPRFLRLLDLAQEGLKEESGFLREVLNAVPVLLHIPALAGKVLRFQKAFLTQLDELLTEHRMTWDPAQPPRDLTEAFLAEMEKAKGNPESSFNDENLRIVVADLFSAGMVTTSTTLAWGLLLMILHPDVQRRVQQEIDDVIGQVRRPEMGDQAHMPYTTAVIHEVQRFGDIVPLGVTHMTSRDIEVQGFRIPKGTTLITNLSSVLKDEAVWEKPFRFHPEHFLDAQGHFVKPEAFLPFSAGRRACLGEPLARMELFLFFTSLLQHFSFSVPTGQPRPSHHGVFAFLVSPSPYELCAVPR
Cytochrome P450 3A4, sequence (P08684 whole entry): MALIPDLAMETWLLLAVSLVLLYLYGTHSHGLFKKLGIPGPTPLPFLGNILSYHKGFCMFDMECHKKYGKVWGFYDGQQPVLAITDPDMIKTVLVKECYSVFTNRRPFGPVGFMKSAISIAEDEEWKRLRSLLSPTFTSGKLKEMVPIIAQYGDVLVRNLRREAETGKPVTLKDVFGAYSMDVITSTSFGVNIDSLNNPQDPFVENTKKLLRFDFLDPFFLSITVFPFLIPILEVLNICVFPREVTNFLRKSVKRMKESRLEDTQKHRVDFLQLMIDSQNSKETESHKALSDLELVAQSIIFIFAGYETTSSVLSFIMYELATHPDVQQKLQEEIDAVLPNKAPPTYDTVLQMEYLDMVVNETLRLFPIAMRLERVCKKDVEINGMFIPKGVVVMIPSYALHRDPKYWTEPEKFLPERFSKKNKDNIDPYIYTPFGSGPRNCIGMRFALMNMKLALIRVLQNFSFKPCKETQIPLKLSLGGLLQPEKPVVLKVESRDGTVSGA
Cytochrome P450 2C9, sequence (P11712 whole entry): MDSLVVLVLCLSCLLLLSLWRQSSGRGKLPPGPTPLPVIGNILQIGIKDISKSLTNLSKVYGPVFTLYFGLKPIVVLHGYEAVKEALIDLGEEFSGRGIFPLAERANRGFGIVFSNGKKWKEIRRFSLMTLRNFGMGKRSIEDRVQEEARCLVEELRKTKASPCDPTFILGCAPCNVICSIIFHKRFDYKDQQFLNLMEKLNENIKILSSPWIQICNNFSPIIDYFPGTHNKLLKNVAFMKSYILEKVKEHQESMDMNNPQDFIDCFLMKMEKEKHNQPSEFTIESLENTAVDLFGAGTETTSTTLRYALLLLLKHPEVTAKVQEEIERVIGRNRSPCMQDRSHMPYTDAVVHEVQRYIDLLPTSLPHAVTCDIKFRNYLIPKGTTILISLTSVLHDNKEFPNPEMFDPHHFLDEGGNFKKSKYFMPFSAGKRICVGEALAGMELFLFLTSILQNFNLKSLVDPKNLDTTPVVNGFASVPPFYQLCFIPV
Cytochrome P450 2C19, sequence (P33261 whole entry): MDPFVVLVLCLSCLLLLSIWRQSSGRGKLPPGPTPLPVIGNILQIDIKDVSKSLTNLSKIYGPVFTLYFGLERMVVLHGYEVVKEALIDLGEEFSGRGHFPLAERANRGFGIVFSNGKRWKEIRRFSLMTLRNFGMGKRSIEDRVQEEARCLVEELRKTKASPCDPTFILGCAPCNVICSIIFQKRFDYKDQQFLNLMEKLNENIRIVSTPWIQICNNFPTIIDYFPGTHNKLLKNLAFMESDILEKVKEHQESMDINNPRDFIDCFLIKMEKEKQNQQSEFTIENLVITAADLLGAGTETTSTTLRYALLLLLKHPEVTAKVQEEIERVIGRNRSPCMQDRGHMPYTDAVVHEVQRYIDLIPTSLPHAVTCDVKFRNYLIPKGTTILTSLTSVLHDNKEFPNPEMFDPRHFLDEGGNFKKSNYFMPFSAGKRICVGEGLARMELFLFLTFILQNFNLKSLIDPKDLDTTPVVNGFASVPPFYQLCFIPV

In the case of `O=C(c1ccccc1F)c1cn(CC(=O)N2CCOCC2)c2ccccc12`, the AC50 [1] is reported as 17.8 µM (inconclusive).
In the case of `S=C1N(c2ccccc2)C(c2ccc(Cl)cc2)N2CCCN12` (centres undefined), the AC50 [1] is reported as 12.6 µM (inconclusive) and the AC50 [2] is reported as 10 µM (inconclusive).
For `Cc1ccc(C(=O)Oc2ccc([N+](=O)[O-])cc2)cc1S(=O)(=O)N1CCCCCC1`, the AC50 [3] was 3.4 µM (active) and the EC50 [4] was 4.99 µM (active).
In the case of `CCN(CC)CCNC(=O)COc1ccc(OC)cc1` [MEFEXAMIDE], the AC50 [5] is reported as 12.6 µM (inconclusive) and the AC50 [6] is reported as 12.6 µM (inconclusive).
For `N#CC1=C(N)Oc2[nH]nc(-c3ccncc3)c2C1c1ccsc1` (centres undefined), the AC50 [3] was 13.4 µM (active) and the EC50 [4] was 3.27 µM (active).
For `Cc1ccc(-c2nc(C[S+]([O-])CC(=O)NCc3ccc4c(c3)OCO4)c(C)o2)cc1` (centres undefined), the AC50 [7] was > 195 µM (inactive).
For `COc1ccc(C(=O)Nc2ccc(O)c3ccccc23)cc1OC`, the AC50 [3] was 82 µM (active) and the EC50 [4] was 8.4 µM (active).
In the case of `CC(C)=C1C(=O)C(c2ccccc2)=C2CN3C(=O)N(CCc4ccccc4)C(=O)[C@]3(Cc3ccccc3)[C@H]21`, the AC50 [1] is reported as 5.01 µM (inconclusive) and the AC50 ([8]; read-out: AC50) is reported as 25.1 µM (inconclusive).
For `O=C(c1ccc(F)c(S(=O)(=O)N2CCOCC2)c1)N1CCN(c2ccc(F)cc2)CC1`, the AC50 [9] was > 260 µM (inactive).
With `Cc1cc(C)nc(N/N=C2/CCCC/C2=C\c2ccccc2)n1` the AC50 [9] was 0.397 µM (active).
With `O=C(Nc1cccc(Cl)c1)Nn1cnnc1` the AC50 [1] was 3.16 µM (inconclusive) and the AC50 [6] was 3.16 µM (inconclusive).
In the case of `N=C(N)N/N=C(/c1ccccc1)c1ccc(O)cc1O`, the AC50 [1] is reported as 3.98 µM (inconclusive).
With `Cc1cc(C)cc(C(=O)Nc2nnc(SCC(=O)N3CCCc4ccccc43)s2)c1` the AC50 [7] was 4.46 µM (active).
In the case of `C/C(=N\N1C(=O)c2ccccc2NC1c1ccco1)c1ccccc1O` (centres undefined), the EC50 [10] is reported as 1.66 µM (active), the EC50 [11] is reported as 4.99 µM (active) and the AC50 [9] is reported as 2.21 µM (active).
In the case of `Cc1ccc(Cn2nnc3c(O)nc(C4CCCN(C(=O)Nc5ccc(F)cc5F)C4)nc32)cc1` (centres undefined), the AC50 [5] is reported as 25.1 µM (inconclusive), the AC50 ([8]; read-out: AC50) is reported as 39.8 µM (inconclusive) and the AC50 [2] is reported as 22.4 µM (inconclusive). For the same molecule, the AC50 [6] was 31.6 µM (inconclusive).
In the case of `CC(OC(=O)c1cccs1)C(=O)NC1CCCCC1C` (centres undefined), the AC50 [7] is reported as > 195 µM (inactive).
For `C=CCOc1ccc2cccc(/C=N/NC(=O)c3cc4cc([N+](=O)[O-])ccc4s3)c2c1`, the AC50 [1] was 2.51 µM (inconclusive) and the AC50 ([8]; read-out: AC50) was 0.398 µM (inconclusive).
With `O=C(Nc1ccc(F)cc1F)N1CCCN(CCOc2ccccc2)CC1` the AC50 [9] was 13.3 µM (active).
In the case of `COc1cccc(/C=N\NC(=O)C2C(=O)NCC2c2ccccc2)c1O` (centres undefined), the AC50 [1] is reported as 25.1 µM (inconclusive), the AC50 ([8]; read-out: AC50) is reported as 39.8 µM (inconclusive) and the AC50 [6] is reported as 17.8 µM (inconclusive).
For `COc1ccccc1CN1CC2(CCN(C(=O)c3ccncc3)CC2)C1`, the AC50 [1] was 7.94 µM (inconclusive).
For `Cc1ccccc1C(=N)c1ccccc1Cc1cccc2ccccc12`, the AC50 [1] was 1.58 µM (inconclusive).
In the case of `Cn1c(=O)c2c(nc(N3CCN(c4ccccn4)CC3)n2Cc2ccc(Cl)cc2Cl)n(C)c1=O`, the AC50 [1] is reported as 2.24 µM (inconclusive).
In the case of `CC1(C)CC(=O)C2=C(C1)N(Cc1ccccc1)C(=O)C2(O)C(F)(F)F` (centres undefined), the AC50 [1] is reported as 20 µM (inconclusive), the EC50 [12] is reported as > 112 µM (not active) and the EC50 [13] is reported as > 112 µM (not active).
With `O=C(Cc1cc(O)n[nH]1)N/N=C/c1c(F)cccc1Cl` the AC50 [3] was 1.87 µM (active) and the EC50 [4] was 1.53 µM (active).
For `COc1cc2c(cc1OC)CN(CC(=O)Nc1ccc3c(c1)OCO3)CC2`, the AC50 ([8]; read-out: AC50) was 22.4 µM (inconclusive), the AC50 [2] was 14.1 µM (inconclusive) and the AC50 [6] was 20 µM (inconclusive).
In the case of `Cc1ccc(S(=O)(=O)Nc2ccc3c(c2)CC(=O)N([C@H](C)CO)C[C@@H](C)[C@H](CN(C)Cc2ccc(-c4ccccc4)cc2)O3)cc1`, the AC50 [7] is reported as 3.9 µM (active).
With `CCN(Cc1cc(Cl)cc(C)c1O)Cc1c(O)ccc2ccccc12` the AC50 [2] was 5.01 µM (inconclusive) and the AC50 [6] was 1 µM (inconclusive).
With `N#CC1=C(N)Oc2[nH]nc(-c3cccs3)c2C1c1ccccc1C(=O)O` (centres undefined) the AC50 [3] was 2.69 µM (active) and the EC50 [4] was 1.56 µM (active).
For `COc1cc2c(cc1OC)C(CCN)=NCC2`, the AC50 [1] was 3.98 µM (inconclusive), the AC50 [5] was 1.58 µM (inconclusive) and the AC50 [8] was “inconclusive”. For the same molecule, the AC50 [6] was 5.01 µM (inconclusive).
With `COc1cccc(-c2sc3ccccc3c2-c2ccc(OCCN3CCOCC3)cc2)c1` the AC50 [7] was 2.32 µM (active).
With `CN(N=O)c1cc(O)ccc1O` [DEPHOSTATIN] the AC50 [5] was 31.6 µM (inconclusive), the AC50 ([8]; read-out: AC50) was 25.1 µM (inconclusive) and the AC50 [2] was 10 µM (inconclusive). The AC50 [6] was 31.6 µM (inconclusive).
With `O=C(c1coc2ccccc2c1=O)N1CCN(c2cccc(C(F)(F)F)c2)CC1` the AC50 [1] was 22.4 µM (inconclusive).
For `Cc1cccc(N(C)C(=O)c2cc3c(O)nc4ccc(C)cc4c3s2)c1`, the EC50 [12] was 70.7 µM (active), the AC50 [7] was 0.394 µM (active) and the EC50 [13] was > 112 µM (not active).
For `COc1ncc2nc(-c3cc(F)cc(F)c3)c(=O)n(C3CC3)c2n1`, the AC50 [1] was 12.6 µM (inconclusive) and the AC50 [2] was 31.6 µM (inconclusive).
For `CC(=O)Nc1ccccc1NC(=O)C/C(C)=N/NC(=O)C(=O)N1CCCCC1`, the AC50 [3] was 5.84 µM (active) and the EC50 [4] was 0.891 µM (active).
With `CCC(=NNC(=O)c1ccc2c(c1)nc(C)n2CC)c1cc(F)ccc1O` the AC50 [9] was 2.32 µM (active).
In the case of `O=C(c1cccc(S(=O)(=O)N2CCc3ccccc3C2)c1)N1CCN(c2ccc(O)cc2)CC1`, the AC50 [7] is reported as 4.51 µM (active).
